# Key:
# [1] = tested on: human melanoma cell line A2058; assay: In vitro anti-proliferative activity (CelltiterGlo, ray design) in A2058, example 3; assay type: cell-based; conditions: for Absolute IC40: A2058, 96 hours, example 3
# Protocol: (I) in combination with the BRAF inhibitor compound (II), experiments were conducted using human melanoma cell line A2058 (BRAF mutant, PTEN-deficient and unsensitive to said BRAF inhibitor).
# (§1) The human melanoma A2058 cell line was purchased at ATCC (Ref number CRL-11147 Batch 5074651). The A2058 cells were cultured in DMEM High glucose medium supplemented with 10% FBS and 2 mM L-Glutamine.
# Compounds (I) and (II) dilutions were prepared according to the material and methods of example 1. The final concentrations tested were defined by Ray design method described below. The DMSO concentration was 0.1% in controls and in all treated wells.
# A ray design was used allowing the characterization of the interaction of the two compounds for several fixed proportion in the mixture. The ray design includes one ray for each single agent and 19 combination rays.
# A2058 cells were plated at 4,000 cells/well in 384-well plates in appropriate culture medium and incubated for 6 hours at 37° C., 5% CO2. […] Cell growth was evaluated by measuring intracellular ATP using CelltiterGlo® reagent (Promega) according to the manufacturer's protocol. Briefly, CellTiterGlo® was added to each plate, incubated for 1 hour then luminescent signal was read on the MicroBeta Luminescent plate reader.
# Four experiments have been performed on this cell line. For each experiment, two 384-well plates were used allowing working with duplicates for combination rays and with quadruplicates for single agent rays.
# Inhibition of cell growth was estimated after treatment with single compounds or combination of compounds for four days and comparing the signal to cells treated with vehicle (DMSO) and following equation described in example 1.
# These measurements allow determining the potential synergistic combinations in using the statistical method described in example 1.
# [2] = tested on: human melanoma cell line WM-266-4; assay: In vitro pro-apoptotic activity (PARP cleavage western blot) in WM-266-4, example 2; assay type: cell-based; conditions: for PARP cleavage signal (AU-BG): single agent 10 000 nM, 24 hours, WM-266-4, example 2
# Protocol: The characterization of the interaction between compound (I) and compound (II) was studied using western blotting method measuring the expression of cleaved PARP which allows to investigate apoptosis by detecting the cleavage of the PARP protein.
# (§2) The human melanoma WM-266-4 cell line was purchased at ATCC (Ref number CRL-1676 Batch 3272826). The WM-266-4 cells were cultured in RPMI1640 medium supplemented with 10% FBS and 2 mM L-Glutamine.
# They were diluted following a 10 fold step dilution in DMSO in order to obtain a 1 mM solution. Then each solution at 10 mM and 1 mM was diluted 50-fold in culture medium containing 10% serum before being added onto cells with a 20-fold dilution factor to reach final concentrations of 10,000 nM and 1,000 nM. The final DMSO concentration was 0.1% in controls and in all treated wells.
# (§3) WM-266-4 cells were seeded into 6-well microplates at 1 000 000 cells per well, in complete culture medium and incubated at 37° C., 5% CO2, overnight.
# (§4) At the end of cell treatment period, adherent cells as well as cells in the cell culture supernatant were lysed for the preparation of the proteins. Cells were lysed in a lysis buffer containing Hepes 50 mM, NaCl 150 mM, Glycerol 10%, Triton 1%, pH=7.5, adding extemporaneously a cocktail of protease and phosphatase inhibitors diluted 100 fold. Protein concentrations in each sample were determined using microBCA technique according to manufacturer's instructions. Western blotting was performed loading 20 μg of proteins in each gel well, and according to the operating procedure. […] After western blotting revelation according to the operating procedure instructions, luminescence was read using FujiFilm (Ray Test) apparatus.
# (§5) This instrument measures the total signal of luminescence obtained on Fujifilm machine (AU) for each selected band. Then, it subtracts the background value (BG) proportional to the size of the selected band or Area. The background is calculated from a band taken on the specific background of the western blot, to obtain the specific signal or (AU−BG) for each band. The calculation of the fold induction is performed for each treatment with compound or combination of compounds using the following formula:
# Fold Induction=((AU−BG)t/(AU−BG)st)*100
# [3] = tested on: human melanoma cell line A2058; assay: In vitro pro-apoptotic activity (PARP cleavage western blot) in A2058, example 4; assay type: cell-based
# Protocol: (§6) The characterization of the interaction between compound (I) and compound (II) was studied using western blotting method which allows investigating apoptosis by detecting the cleavage of the PARP protein.
# as §1
# (§7) Cell treatment, Western Blot experiment and calculation of apoptosis fold induction were performed according to the material and method described in example 2.
# [4] = tested on: human melanoma cell line WM-266-4; assay: In vitro pro-apoptotic activity (PARP cleavage) in WM-266-4 in a concentration-dependent manner, example 5; assay type: cell-based; conditions: WM-266-4, example 5
# Protocol: as §6, §2
# They were diluted following two 10-fold step dilution in DMSO in order to obtain a 1 mM solution and a 0.1 mM solution Then each solution at 10 mM, 1 mM or 0.1 mM was diluted 50-fold in culture medium containing 10% serum before being added onto cells with a 20-fold dilution factor to reach final concentrations of 10,000 nM, 1,000 nM and 100 nM. The final DMSO concentration was 0.1% in controls and in all treated wells.
# as §7
# [5] = tested on: human melanoma cell line A2058; assay: In vitro pro-apoptotic activity (PARP cleavage) in A2058 in a concentration-dependent manner, example 6; assay type: cell-based; conditions: A2058, example 6
# Protocol: as §6, §1, §7
# [6] = tested on: ribosomal protein S6 phosphorylated on Ser240/244 (pS6) in WM-266-4 cells; assay: In vitro S6 phosphorylation inhibition (pS6 western blot) in WM-266-4, example 7; assay type: cell-based, human; conditions: for inhibition at 0.1 µM: Homo sapiens
# Protocol: The inhibitory effect on ribosomal S6 protein phosphorylation by both compounds alone or in combination was characterized using western blotting method which allows investigating S6 phosphorylation by detecting the expression of ribosomal protein S6 phosphorylated on Ser240/244 position (pS6).
# as §2, §3
# as §4, with “instructions.” for “instructions. Western blotting was performed loading 20 μg of proteins in each gel well, and according to the operating procedure.”
# as §5, with “percentage of inhibition” for “fold induction”
# Inhibition %=1−(((AU−BG)t/(AU−BG)st))*100
# [7] = single agent 10 000 nM, A2058, example 4
# [8] = single agent 10 000 nM, 24 hours
# [9] = Homo sapiens, single agent 100 nM
SMILES,Absolute IC40 ([1]; single agent),PARP cleavage signal (AU-BG) [2] [AU-BG],"PARP cleavage signal (AU-BG) [3, 7] [AU-BG]",PARP cleavage signal (AU-BG) ([4]; single agent 100 nM),PARP cleavage signal (AU-BG) ([4]; single agent 1 000 nM),PARP cleavage signal (AU-BG) ([4]; single agent 10 000 nM),PARP cleavage signal (AU-BG) ([5]; single agent 100 nM),PARP cleavage signal (AU-BG) ([5]; single agent 1 000 nM),PARP cleavage signal (AU-BG) ([5]; single agent 10 000 nM),inhibition at 0.1 µM ([6]; single agent 100 nM) [%],pS6 signal (AU-BG) ([6]; single agent 100 nM),Inhibition % of S6 phosphorylation ([6]; single agent 1 000 nM) [%],pS6 signal (AU-BG) ([6]; single agent 1 000 nM),"Inhibition % of S6 phosphorylation [6, 8] [%]","pS6 signal (AU-BG) [6, 8] [AU-BG]",other results
"C[C@H]1Cc2ccccc2N1C(=O)Cc1nc(N2CCOCC2)cc(=O)[nH]1 [Compound (I), 2-{2-[(2S)-2-methyl-2,3-dihydro-1H-indol-1-yl]-2-oxoethyl}-6-(morpholin-4-yl)pyrimidin-4(3H)-one]","11,500 nM",509366,2141626,241428,502317,1756263,2380877,2685395,5173100,69,12132104,90,3984365,94,2239754,
"CCCS(=O)(=O)Nc1ccc(F)c(C(=O)c2c[nH]c3ncc(-c4ccc(Cl)cc4)cc23)c1F [Compound (II), 1-Propanesulfonamide,N-[3-[[5-(4-chlorophenyl)-1H-pyrrolo[2,3-b]pyridin-3-yl]carbonyl]-2,4-difluorophenyl]]","1,890 nM",982219,2501364,413818,662217,876269,2431268,4540797,5192876,76,9230994,92,3163194,94,2333062,"IC50 ([1]; Homo sapiens, A2058, approximately, read-out: IC50 with A2058 unsensitive cancer cells): ~4.2 µM; IC40, antiproliferative effect, A2058 ([1]; single agent, approximately): ~1,200 nM; Fold induction of PARP cleavage ([2]; human, WM-266-4 melanoma cells (BRAF mutant, PTEN-deficient), 24 h, 10000 nM): 1.38 fold; Fold induction of PARP cleavage ([3]; human, 24 h, 10000 nM): 1.00 fold; Fold induction of PARP cleavage [3, 7]: 1.17 fold; fold induction at 0.1 µM [4, 9]: 1.62; Fold induction of PARP cleavage ([4]; single agent 1 000 nM): 2.59 fold; Fold induction of PARP cleavage ([4]; single agent 10 000 nM): 3.42 fold; fold induction at 0.1 µM [5, 9]: 1.14; Fold induction of PARP cleavage ([5]; single agent 1 000 nM): 2.13 fold; Fold induction of PARP cleavage ([5]; single agent 10 000 nM): 2.44 fold"

# Reference: US20160030438A1, “ANTI-TUMORAL COMPOSITION COMPRISING A PI3KBETA INHIBITOR AND A RAF INHIBITOR, TO OVERCOME CANCER CELLS RESISTANCE” (SANOFI, priority 2013, published 2016)
